Patent US20250276996A1, “CATIONICALLY-ENFRAMED HIGH DENSITY AROMATIC PEPTIDES” (Research Foundation of the City University of New York, priority 2022, published 2025)
Entries after “also recorded” stand apart in the source; their conditions may differ. Non-standard residues stand in square brackets, D forms with d. No end group written: not given here.

Key:
ARPE-19 cells = experiment: Mitochondrial potential in the presence of CCCP (TMRM); format: cell-based; details: 10 μM of CCCP
Experimental: Effects of peptides on mitochondrial potential in the presence of Carbonyl cyanide m-chlorophenylhydrazone (CCCP): ARPE-19 cells (ATTC-CRL-2302) (5×10^4 cells) were seeded in 35 mm glass dishes in DMEM/F12 medium with 10% FBS for 24 hr. On the day of the experiment, cells were cultured in DMEM/F12 in the presence of different concentrations of biotin-HDAP2 for 60 min (FIG. 17B). Then, cells were incubated with 10 μM CCCP in the presence of 5 nM TMRM, 100 nM Mito View Green, and 10 μg/ml Hoechst 33342 for 15 min at 37° C. Fluorescent images were immediately obtained with a Nikon Eclipse 50i fluorescence microscope (60× objective) using FITC (Mito View Green), Texas Red (TMRM), and DAPI (Hoechst) filters. Images were collected from three independent experiments, using 4-6 random fields for each treatment group, and imaged and analyzed as described for NR.

[1] = tested on: antimycin-induced scratching; experiment: Topical antimycin-induced scratching; format: in vivo, C57BL/6J mice; details: 100 μM topical with 200 μM antimycin
Experimental: However, antimycin-induced scratching in mice was […] by biotin-free HDAP2. Dermal administration of antimycin, a mitochondrial Complex III irreversible inhibitor, is known to induce ROS formation and oxidative stress in C fibers of sensory neurons, resulting in severe scratching in mice. Biotin-HDAP2 and biotin-free HDAP2 were tested to see if either can inhibit topical antimycin-induced itching in 12 months old C57BL/6J mice. […] Specifically, 200 μM of topical antimycin in methanol induced itching, which was monitored for 60 min. […] Error bars represent SEM (n=3) **P<0.001. Topical administration of 100 μM of biotin-free HDAP2 with antimycin increased scratching by 2.5 fold. Error bars represent SEM (n=3) ***P<0.0001.

MDBK cells = experiment: Cell survival in serum-free media (AlamarBlue); format: cell-based, bovine; details: 1 μM, 5 days serum starvation
Experimental: Serum starvation experiments: Biotin-HDAP2's ability to improve cell viability and function following serum starvation was assessed. For all experiments, MDBK cells were seeded in 35 mm cell culture dishes (5×10^4 cells) in DMEM medium with 10% FBS (Fetal Bovine Serum) for 24 hrs and then incubated in serum-free medium with or without biotin-HDAP2 (1 μM) for 5 days to induce cell death. For quantitative measurements, wells were washed to remove dead cells, and then stained with AlamarBlue for 60 min. Quantitative analysis of dye conversion was measured using a fluorescent plate reader (550 ex/580 em) and cell viability was expressed as folds change (increase or decrease) over scrum-starved untreated cells.
Effects of peptides on cell survival in serum-free media: Cell survival in serum starvation conditions was studied in the presence and absence of biotin-HDAP2 using MDBK cells. Cells were plated at a density of 1-2×10^5 cells/well in 96 well plates in DMEM/10% FBS media. The following day, cells were washed and the medium replaced with DMEM serum-free media in the presence or absence of different concentrations of biotin-HDAP2 and incubated for 5 days. Cell viability was assessed using the Resaruzin (Alamar blue) indicator dye. Quantitative analysis of dye conversion was measured using a fluorescent plate reader (ex/em=550/580 nm) and viability was expressed as fold increase over of untreated cells.

In the case of `N#CC(C#N)=NNc1cccc(Cl)c1` [CCCP, carbonyl cyanide m-chlorophenylhydrazone, reference compound], the “ΔΨm relative to control cells” value (ARPE-19 cells) is reported as 20%.

In the case of [dR]FF[dR] [biotin-free HDAP2], the increase of scratching [1] is reported as 2.5 fold, the “effect on antimycin-induced scratching” value ([1]; 60 min) is reported as “potentiated” and the “AlamarBlue fluorescence / protection during serum starvation” value (MDBK cells) is reported as “did not increase AlamarBlue fluorescence; also recorded: does not protect cells during serum starvation”.
